Reference: patent US8486374B2, “Hydrophilic, non-aqueous pharmaceutical carriers and compositions and uses” (Foamix Ltd., priority 2004, dated 2013)

What was measured:
Type in all cases: physicochemical
[1] = Solubility of the active agent in solvents/carriers; conditions: in the polyol and DMI mixture (Example 19 composition)
[2] = Shakability of the composition
Text: ‘Shakability’ means that the composition contains some or sufficient flow to allow the composition to be mixed or remixed on shaking. That is, it has fluid or semi fluid properties. A breakable foam is that is thermally stable, yet breaks under sheer force.
‘Shakability’ means that the composition contains some or sufficient flow to allow the composition to be mixed or remixed on shaking. That is, it has fluid or semi fluid properties. In some very limited cases it may still be possible to have a foamable composition which is flowable but not apparently shakable.

[3] = Foam appearance (color, odor, form); design: key to ODOR: No odor (N.O.); key to COLOR: white (W)
[4] = Foam quality grading upon release from the aerosol container; conditions: active agent in stock of PEG-400 97.5, hydroxypropyl cellulose 0.5, steareth 2 2.0 (first Example 29)
Text: Foam quality can be graded as follows:
Grade FG (fairly good): a moderate amount of creaminess noticeable, bubble structure is noticeable; upon spreading on the skin the product dulls rapidly and becomes somewhat lower in apparent viscosity.
Grade F (fair): very little creaminess noticeable, larger bubble structure than a “fairly good” foam, upon spreading on the skin it becomes thin in appearance and watery.
Grade P (poor): no creaminess noticeable, large bubble structure, and when spread on the skin it becomes very thin and watery in appearance.
Grade VP (very poor): dry foam, large very dull bubbles, difficult to spread on the skin.

[5] = active agent in stock of PEG-400 97.5, hydroxypropyl cellulose 0.5, steareth 2 2.0 (first Example 29)
[6] = active agent in stock of propylene glycol 46, glycerin 33, dimethyl isosorbide 15, stearyl alcohol, hydroxypropyl cellulose, laureth-4, GMS/PEG 100 stearate (Example 30)
[7] = active agent in stock of propylene glycol 91, stearyl alcohol 2, Klucel EF 2, laureth-4 2, glyceryl monostearate/PEG 100 stearate 3 (second Example 29)

Row | SMILES | solubility [1] | SHAKABILITY [2, 5] | SHAKABILITY [2, 6] | SHAKABILITY [2, 7] | COLOR [3, 5] | ODOR [3, 5] | COLOR [3, 6] | ODOR [3, 6] | COLOR [3, 7] | ODOR [3, 7] | QUALITY [4]
1 | Nc1nc2c(ncn2COCCO)c(=O)[nH]1 [Acyclovir] | not fully soluble | Yes | Yes | Yes | W | N.O | O.W | N.O | O.W | N.O | –
2 | O=C(O)Cc1ccccc1Nc1c(Cl)cccc1Cl [Diclofenac sodium] | – | Yes | Yes | Yes | W | N.O | W | N.O | W | N.O | G+
